Here are results for four compounds from patent publication US5225426A, “Thiazolidine-2,4-dione compound and method of treatment of diabetic complications” (Terumo Kabushiki Kaisha, priority 1990, dated 1993).

A value given as a limit tells only on which side of the number the result lay.

As a reminder, the LD50 is the dose at which mortality reaches 50%. High values mean a less toxic substance, low ones a more toxic substance.

One data set in a line: in vivo. As to conditions: mouse, oral, ICR type male mice (five-week old). The procedure: The compounds 1, 2 and 3 of this invention were tested for acute toxicity by oral administration thereof to ICR type male mice (five-week old).
A further data set deals with T1, aldose reductase (Rattus norvegicus, UniProt P07943).
T1 construct: From the crystalline lens, aldose reductase was prepared; from tissue; host or cells: crystalline lens of five-week old male Wistar rat
Description: Determination of Aldose Reductase-inhibiting Activity. It is filed as biochemical, Wistar type male rat (crystalline lens). As to conditions: rat lens enzyme; 0.1 mM DL-glyceraldehyde, 0.03 mM NADPH, pH 7.0, 30° C., 30 minutes; read-out: 50% inhibition concentration (IC50). Here is the method: A five-week old Wistar type male rat was sacrificed under anesthesia and immediately dissected to remove crystalline lens. From the crystalline lens, aldose reductase was prepared by following the Hyman et al's method [J. Biol. Chem., 240, 877-882 (1965)] with necessary modifications. The aldose reductase activity was determined by the Dufrane et al's method [Biochem. Med., 32, 99-105 (1984)]. In 400 μl of a 135 mM sodium-potassium phosphate buffer solution (pH 7.0) prepared in advance so as to contain 100 mM lithium sulfate, 0.03 mM NADPH (reducing type nicotinamide adenine dinucleotide phosphate), and 0.1 mM DL-glyceraldehyde as a substrate, 50 μl of the aforementioned aldose reductase and 50 μl of a sample of a varying concentration (having Compound 1, or Compound 2, or Compound 3 dissolved in ethanol) added thereto were left reacting at 30° C. for 30 minutes. Then, the reaction was stopped by addition of 0.15 ml of 0.5N hydrochloric acid. The NADP (oxide type nicotinamide adenine dinucleotide phosphate) produced by the reaction in the reaction mixture was converted into a fluorescent substance by the addition thereto of 0.5 ml of 6N sodium hydroxide containing 10 mM imidazole. After the elapse of 60 minutes following the conversion, the produced reaction mixture was tested for intensity of fluorescence. The intensity of fluorescence was determined by the use of a fluorescence tester (produced by Corona Denki K.K. and marketed under trademark designation of "MTP-100F Corona Microplate Reader") under the conditions of 360 nm of excitation wavelength and 460 nm of fluorescent wavelength. The intensity of fluorescence determined by repeating the procedure described above, except ethanol was added in the place of the sample was used as a control value. As the aldose reductase inhibiting activity of a sample, the concentration of the sample required for inhibiting 50% of the aldose reductase activity due to a decline of the intensity of fluorescence (i.e. 50% inhibition concentration: IC50 value) was obtained.

For the next data set, the system named is blood sugar. Description: Blood sugar drop ratio in streptozotocin diabetic rats. The format is in vivo, Wistar type male rats. As to conditions: oral, four days, blood 3 hours after administration. Here is the method: (§1) Groups each of five three-week old Wistar type male rats were used for the test. To the rats, streptozotocin was administered at a concentration of 65 mg/kg via the tail vein. Of these rats, those whose blood sugar values fell in the range of from 250 to 650 mg/dl one week after the administration were designated as diabetic rats. As a control medicine, Compound 4 represented by the formula VII was used. [drawing 9]
(§2) The five groups, i.e. the group of untreated diabetic rats, the group of rats subjected to administration of control medicine (50 mg/kg×2/day), the group of rats subjected to administration of sample (100 mg/kg/day), and the group of normal rats, were tested. A given medicine was suspended in 5% gum arabic and orally administered continually for four days after the elapse of two weeks following the onset of diabetes. To the group of untreated diabetic rats and the group of normal rats, a 5% gum arabic solution […] was administered in a ratio of 10 ml/kg. After the elapse of three hours following the administration, the blood was extracted from each rat with the aid of heparin via the tail vein (for the determination of blood sugar) and the abdominal aorta.
The PRC was tested for sorbitol content by the Malon et al's method [Diabetes, 29, 861-864 (1980)]. The determination of the blood sugar value was carried out by the alucose-oxidase method.
The blood sugar drop ratio and the sorbitol accumulation inhibition ratio were calculated in accordance with Formula 1 and Formula 2.
Blood sugar drop ratio (%)=(1-[(Average blood sugar value of the group of rats subjected to administration of sample or control medicine-Average blood sugar value of the group of normal rats)/(Average blood sugar value of the group of untreated diabetic rats-Average blood sugar value of the group of normal rats)])×100

For data set [1], the system named is Sorbitol in Red Blood Cells. Description: Action to Curb Accumulation of Sorbitol in Red Blood Cells (streptozotocin diabetic rats). The format is in vivo, Wistar type male rats. As to conditions: control medicine 50 mg/kg×2/day, oral, four days; packed red cells, blood 3 hours after administration. Here is the method: as §1
as §2, with “aorta. […]” for “aorta.”
The blood sugar drop ratio and the sorbitol accumulation inhibition ratio were calculated in accordance with Formula 1 and Formula 2. […]

As to `O=C1NC(=O)C(Cc2ccc(C(=O)C=Cc3ccc(O)c(O)c3)cc2)S1` (centres unmarked) [Compound 1, 5-{4-[3-(3,4-dihydroxyphenyl)-2-propenoyl]benzyl}thiazolidine-2,4-dione], the LD50 in the data set “in vivo” was not below 1000 mg/kg. Moreover, the IC50 on aldose reductase is 520 nM. Further, the “Blood sugar drop ratio” value with blood sugar (sample 100 mg/kg/day) came out at 46.8%.
`COc1cc(C=CC(=O)c2ccc(CC3SC(=O)NC3=O)cc2)ccc1O` (centres unmarked) [Compound 2, 5-{4-[3-(4-hydroxy-3-methoxyphenyl)-2-propenoyl]benzyl}thiazolidine-2,4-dione]: in the data set “in vivo”, the LD50 is not below 1000 mg/kg. Also, the IC50 on aldose reductase turned out to be 4200 nM. Also, the “Blood sugar drop ratio” value in the data set on blood sugar (sample 100 mg/kg/day) worked out at 60.5%.
For the compound `COc1cc(C=CC(=O)c2cccc(CC3SC(=O)NC3=O)c2)ccc1O` (centres unmarked) [Compound 3, 5-{3-[3-(4-hydroxy-3-methoxyphenyl)-2-propenoyl]benzyl}thiazolidine-2,4-dione], the LD50 in “in vivo” is not below 1000 mg/kg. Besides, the IC50 at aldose reductase was determined as 1900 nM. Also, in the data set with blood sugar (sample 100 mg/kg/day), the “Blood sugar drop ratio” value is 42.6%.
Consider `CC(=Cc1ccccc1)C=C1SC(=S)N(CC(=O)O)C1=O` [Compound 4, reference compound], for which the “Sorbitol accumulation inhibition ratio” value in data set [1] is 90.3%. Moreover, in the data set on blood sugar (control medicine 50 mg/kg×2/day), the “Blood sugar drop ratio” value is listed as 7.2%.
